# According to patent US20100261719A1, “CHEMICAL COMPOUNDS” (priority 2007, published 2010):
# Target: Escherichia coli DNA gyrase A/B tetramer (Escherichia coli, UniProt P0AES4+P0AES6)
# Experiment: DNA gyrase supercoiling activity fluorescence polarisation assay
# Format: biochemical
# Conditions: not given
# Protocol: In a black, 384-well polystyrene assay plate, 30 microliters/well of 5 nM Escherichia coli DNA gyrase A/B tetramer and 130 micrograms/ml of topologically relaxed plasmid containing the triplex-forming sequence […] in an assay buffer consisting of 35 mM Tris-HCl (pH 7.5), 24 mM KCl, 4 mM MgCl2, 2 mM dithiothreitol, 1.8 mM spermidine, 5% (v/v) glycerol, 200 nM bovine serum albumin, 0.8% dimethylsulfoxide, and 0.3 mM ATP may be incubated at ambient temperature for (typically 30 minutes) in the absence or presence of 5-10 different concentrations of test compound. The supercoiling reactions may be quenched by the addition of 10 microliters/well of 40 nM oligodeoxynucleotide probe in 3× triplex-forming buffer consisting of 150 mM NaCl, and 150 mM sodium acetate at pH 3.5. The oligodeoxynucleotide probe may be 5′-BODIPY-FL-labeled TTCTTCTTC. After 60 minutes, the fluorescence anisotropy of the BODIPY-FL may be measured in a Tecan Ultra plate reader, using 485 nm excitation and 535 nm emission filters equipped with polarizers. The IC50 may be determined by nonliner regression using two control reactions. The first contains no test compound but 0.8% DMSO (100% activity) while the second control reaction contains 5 uM Ciprofloxacin and 0.8% DMSO (0% activity).
# When tested in an in-vitro assay based on the DNA gyrase supercoiling activity fluorescence polarisation assay described above, the E. coli DNA gyrase supercoiling IC50 assay inhibitory activity of the following Examples was measured at the indicated IC50.
# Sequence of Escherichia coli DNA gyrase A/B tetramer (P0AES4 whole entry, one chain of several): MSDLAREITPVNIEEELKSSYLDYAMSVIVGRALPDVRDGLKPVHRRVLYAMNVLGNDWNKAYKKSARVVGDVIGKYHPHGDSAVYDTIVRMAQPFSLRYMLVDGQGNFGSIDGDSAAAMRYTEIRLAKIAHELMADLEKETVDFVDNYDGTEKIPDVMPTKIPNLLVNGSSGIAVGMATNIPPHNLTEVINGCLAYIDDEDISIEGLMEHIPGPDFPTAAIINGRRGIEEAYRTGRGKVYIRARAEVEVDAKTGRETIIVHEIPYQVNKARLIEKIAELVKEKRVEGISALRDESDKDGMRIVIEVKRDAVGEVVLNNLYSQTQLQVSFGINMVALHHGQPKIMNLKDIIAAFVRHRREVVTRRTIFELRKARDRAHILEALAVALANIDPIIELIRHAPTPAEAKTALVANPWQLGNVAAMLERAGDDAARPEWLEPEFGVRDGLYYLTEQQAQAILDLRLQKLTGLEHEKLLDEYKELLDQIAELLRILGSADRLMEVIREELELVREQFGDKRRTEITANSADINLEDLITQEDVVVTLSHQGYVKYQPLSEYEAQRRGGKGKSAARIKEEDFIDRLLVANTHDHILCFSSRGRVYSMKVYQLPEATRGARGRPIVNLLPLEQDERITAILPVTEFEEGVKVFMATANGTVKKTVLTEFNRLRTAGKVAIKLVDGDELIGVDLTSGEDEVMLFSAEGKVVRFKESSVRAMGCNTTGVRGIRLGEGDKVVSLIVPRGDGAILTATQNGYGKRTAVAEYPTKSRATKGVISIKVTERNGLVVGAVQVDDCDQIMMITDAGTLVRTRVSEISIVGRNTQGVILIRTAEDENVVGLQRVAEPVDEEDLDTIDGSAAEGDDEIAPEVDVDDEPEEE
row,Compound,IC50 [nM]
1,"C[C@@H]1CN2c3cc(F)c(C#Cc4cccs4)cc3CC3(C(=O)NC(=O)NC3=O)[C@H]2[C@H](C)O1 (relative stereo) [Example 28, (2R,4S,4aS)-rel-9-Fluoro-2,4-dimethyl-8-(thiophen-2-ylethynyl)-1,2,4,4a-tetrahydro-2′H,6H-spiro[1,4-oxazino[4,3-a]quinoline-5,5′-pyrimidine]-2′,4′,6′(1′H,3′H)-trione]",1110
2,"C[C@H]1CN2c3c(cc(C#Cc4cc5ccccc5s4)c(F)c3F)CC3(C(=O)NC(=O)NC3=O)[C@@H]2[C@@H](C)O1 (racemic) [Example 11, (2S,4R,4aR)-rel-8-(1-Benzothiophen-2-ylethynyl)-9,10-difluoro-2,4-dimethyl-1,2,4,4a-tetrahydro-2′H,6H-spiro[1,4-oxazino[4,3-a]quinoline-5,5′-pyrimidine]-2′,4′,6′(1′H,3′H)-trione]",5490
3,"Cc1nnc(C#Cc2cc3c(c(F)c2F)N2C[C@H](C)O[C@H](C)[C@H]2C2(C3)C(=O)NC(=O)NC2=O)s1 (relative stereo) [Example 5, (2S,4R,4aR)-rel-9,10-Difluoro-2,4-dimethyl-8-[(5-methyl-1,3,4-thiadiazol-2-yl)ethynyl]-1,2,4,4a-tetrahydro-2′H,6H-spiro[1,4-oxazino[4,3-a]quinoline-5,5′-pyrimidine]-2′,4′,6′(1′H,3′H)-trione]",1880
4,"C[C@@H]1CN2c3c(cc(C(=O)NC4CCCOC4)c(F)c3F)CC3(C(=O)NC(=O)NC3=O)[C@H]2[C@H](C)O1 (relative stereo) [Example 65, (2R,4S,4aS)-rel-9,10-Difluoro-2,4-dimethyl-2′,4′,6′-trioxo-N-(tetrahydro-2H-pyran-3-yl)-1,1′,2,3′,4,4′,4a,6′-octahydro-2′H,6H-spiro[1,4-oxazino[4,3-a]quinoline-5,5′-pyrimidine]-8-carboxamide]",> 10000
5,"CNC(=O)Nc1ccc2c(c1)CC1(C(=O)NC(=O)NC1=O)[C@H]1[C@H](C)O[C@H](C)CN21 (relative stereo) [Example 78, 1-[(2R,4S,4aS)-rel-2,4-Dimethyl-2′,4′,6′-trioxo-1,1′,2,3′,4,4′,4a,6′-octahydro-2′H,6H-spiro[1,4-oxazino[4,3-a]quinoline-5,5′-pyrimidin]-8-yl]-3-methylurea]",8650
6,"C[C@@H]1CN2c3c(cc(C#Cc4ccc(-c5nnn[nH]5)s4)c(F)c3F)CC3(C(=O)NC(=O)NC3=O)[C@H]2[C@H](C)O1 (relative stereo) [Example 14, (2R,4S,4aS)-rel-9,10-Difluoro-2,4-dimethyl-8-{[5-(1H-tetrazol-5-yl)thiophen-2-yl]ethynyl}-1,2,4,4a-tetrahydro-2′H,6H-spiro[1,4-oxazino[4,3-a]quinoline-5,5′-pyrimidine]-2′,4′,6′(1′H,3′H)-trione]",1120
7,"C[C@@H]1CN2c3cc(F)c(C#Cc4nc5ccccc5o4)cc3CC3(C(=O)NC(=O)NC3=O)[C@H]2[C@H](C)O1 (relative stereo) [Example 35, (2R,4S,4aS)-rel-8-(1,3-Benzoxazol-2-ylethynyl)-9-fluoro-2,4-dimethyl-1,2,4,4a-tetrahydro-2′H,6H-spiro[1,4-oxazino[4,3-a]quinoline-5,5′-pyrimidine]-2′,4′,6′(1′H,3′H)-trione]",1480
8,"C[C@H]1CN2c3c(cc(C#Cc4ncc[nH]4)c(F)c3F)CC3(C(=O)NC(=O)NC3=O)[C@@H]2[C@@H](C)O1 (relative stereo) [Example 16, (2S,4R,4aR)-rel-9,10-Difluoro-8-(1H-imidazol-2-ylethynyl)-2,4-dimethyl-1,2,4,4a-tetrahydro-2′H,6H-spiro[1,4-oxazino[4,3-a]quinoline-5,5′-pyrimidine]-2′,4′,6′(1′H,3′H)-trione]",690
9,"C[C@@H]1CN2c3c(cc(C(=O)NC4CCOCC4)c(F)c3F)CC3(C(=O)NC(=O)NC3=O)[C@H]2[C@H](C)O1 (relative stereo) [Example 66, (2R,4S,4aS)-rel-9,10-Difluoro-2,4-dimethyl-2′,4′,6′-trioxo-N-(tetrahydro-2H-pyran-4-yl)-1,1′,2,3′,4,4′,4a,6′-octahydro-2′H,6H-spiro[1,4-oxazino[4,3-a]quinoline-5,5′-pyrimidine]-8-carboxamide]",5860
10,"C/C(=N\Nc1ncccn1)c1cc2c(c(F)c1F)N1C[C@@H](C)O[C@@H](C)[C@@H]1C1(C2)C(=O)NC(=O)NC1=O (relative stereo) [Example 59, (2R,4S,4aS)-rel-9,10-Difluoro-2,4-dimethyl-8-{(1E)-1-[2-(pyrimidin-2-yl)hydrazinylidene]ethyl}-1,2,4,4a-tetrahydro-2′H,6H-spiro[1,4-oxazino[4,3-a]quinoline-5,5′-pyrimidine]-2′,4′,6′(1′H,3′H)-trione]",1640
11,"C[C@@H]1CN2c3cc(F)c(C#Cc4ncccn4)cc3CC3(C(=O)NC(=O)NC3=O)[C@H]2[C@H](C)O1 (relative stereo) [Example 33, (2R,4S,4aS)-rel-9-Fluoro-2,4-dimethyl-8-(pyrimidin-2-ylethynyl)-1,2,4,4a-tetrahydro-2′H,6H-spiro[1,4-oxazino[4,3-a]quinoline-5,5′-pyrimidine]-2′,4′,6′(1′H,3′H)-trione]",1180
12,"CC(=O)N/N=C/c1cc2c(c(F)c1F)N1C[C@@H](C)O[C@@H](C)[C@@H]1C1(C2)C(=O)NC(=O)NC1=O (relative stereo) [Example 23, N′-{(E)-[(2R,4S,4aS)-rel-9,10-Difluoro-2,4-dimethyl-2′,4′,6′-trioxo-1,1′,2,3′,4,4′,4a,6′-octahydro-2′H,6H-spiro[1,4-oxazino[4,3-a]quinoline-5,5′-pyrimidin]-8-yl]methylidene}acetohydrazide]",1030
13,"C[C@@H]1CN2c3cc(F)c(C#Cc4cncs4)cc3CC3(C(=O)NC(=O)NC3=O)[C@H]2[C@H](C)O1 (relative stereo) [Example 27, (2R,4S,4 aS)-rel-9-Fluoro-2,4-dimethyl-8-(1,3-thiazol-5-ylethynyl)-1,2,4,4a-tetrahydro-2′H,6H-spiro[1,4-oxazino[4,3-a]quinoline-5,5′-pyrimidine]-2′,4′,6′(1′H,3′H)-trione]",830
14,"C/C(=N\NC(=O)CC#N)c1cc2c(c(F)c1F)N1C[C@@H](C)O[C@@H](C)[C@@H]1C1(C2)C(=O)NC(=O)NC1=O (relative stereo) [Example 53, 2-Cyano-N′-{(1E)-1-[(2R,4S,4aS)-rel-9,10-difluoro-2,4-dimethyl-2′,4′,6′-trioxo-1,1′,2,3′,4,4′,4a,6′-octahydro-2′H,6H-spiro[1,4-oxazino[4,3-a]quinoline-5,5′-pyrimidin]-8-yl]ethylidene}acetohydrazide]",1640
15,"C[C@@H]1CN2c3c(F)cc(C#Cc4cccs4)cc3CC3(C(=O)NC(=O)NC3=O)[C@H]2[C@H](C)O1 (relative stereo) [Example 40, (2R,4S,4aS)-rel-10-Fluoro-2,4-dimethyl-8-(thiophen-2-ylethynyl)-1,2,4,4a-tetrahydro-2′H,6H-spiro[1,4-oxazino[4,3-a]quinoline-5,5′-pyrimidine]-2′,4′,6′(1′H,3′H)-trione]",1140
16,"C[C@@H]1CN2c3c(F)cc(C#Cc4nccs4)cc3CC3(C(=O)NC(=O)NC3=O)[C@H]2[C@H](C)O1 (relative stereo) [Example 38, (2R,4S,4aS)-rel-10-Fluoro-2,4-dimethyl-8-(1,3-thiazol-2-ylethynyl)-1,2,4,4a-tetrahydro-2′H,6H-spiro[1,4-oxazino[4,3-a]quinoline-5,5′-pyrimidine]-2′,4′,6′(1′H,3′H)-trione]",760
17,"C[C@@H]1CN2c3ccc(NC(=O)N4CCNC4=O)cc3CC3(C(=O)NC(=O)NC3=O)[C@H]2[C@H](C)O1 (relative stereo) [Example 76, N-[(2R,4S,4aS)-rel-2,4-Dimethyl-2′,4′,6′-trioxo-1,1′,2,3′,4,4′,4a,6′-octahydro-2′H,6H-spiro[1,4-oxazino[4,3-a]quinoline-5,5′-pyrimidin]-8-yl]-2-oxoimidazolidine-1-carboxamide]",16500
18,"C[C@@H]1CN2c3c(cc(C(=O)NC4CCCN(C)C4)c(F)c3F)CC3(C(=O)NC(=O)NC3=O)[C@H]2[C@H](C)O1 (relative stereo) [Example 69, (2R,4S,4aS)-rel-9,10-Difluoro-2,4-dimethyl-N-(1-methylpiperidin-3-yl)-2′,4′,6′-trioxo-1,1′,2,3′,4,4′,4a,6′-octahydro-2′H,6H-spiro[1,4-oxazino[4,3-a]quinoline-5,5′-pyrimidine]-8-carboxamide]",8680
19,"C/C(=N\NC(N)=O)c1cc2c(c(F)c1F)N1C[C@@H](C)O[C@@H](C)[C@@H]1C1(C2)C(=O)NC(=O)NC1=O (relative stereo) [Example 54, (2E)-2-{1-[(2R,4S,4aS)-rel-9,10-Difluoro-2,4-dimethyl-2′,4′,6′-trioxo-1,1′,2,3′,4,4′,4a,6′-octahydro-2′H,6H-spiro[1,4-oxazino[4,3-a]quinoline-5,5′-pyrimidin]-8-yl]ethylidene}hydrazinecarboxamide]",2300

# Same assay, conditions: 5 nM enzyme, 0.3 mM ATP, relaxed plasmid, fluorescence anisotropy readout; read-out: E. coli DNA gyrase supercoiling IC50
row,Compound,IC50 [nM]
1,"(2R,4S,4aS)-rel-9,10-Difluoro-2,4-dimethyl-8-[(E)-(morpholin-4-ylimino)methyl]-1,2,4,4a-tetrahydro-2′H,6H-spiro[1,4-oxazino[4,3-a]quinoline-5,5′-pyrimidine]-2′,4′,6(1′H,3′H)-trione [Example 22]",1570
